Holding throughout (type): cell-based
Data set [1] concerns LCC6-MDR drug resistant (Pgp+) human breast cancer cell line. The data set is described as follows: Cytotoxicity of third-generation taxoids, LCC6-MDR. The following applies: LCC6-MDR cells.
Another data set deals with LCC6-WT. The data set is described as follows: Cytotoxicity of third-generation taxoids, LCC6-WT. The following applies: LCC6-WT cells.
The test system of data set [2] is PANC-1 human pancreatic cancer cell line. Description: Cytotoxicity of third-generation taxoids, PANC-1. The note with it: PANC-1 cells.
In data set [3] the test system is CFPAC-1 human pancreatic cancer cell line. Description: Cytotoxicity of third-generation taxoids, CFPAC-1. The note with it: CFPAC-1 cells.
The subject of data set [4] is MCF7 human breast cancer cell line. The data set is described as follows: Cytotoxicity of third-generation taxoids, MCF7. The note with it: MCF7 cells.
In data set [5] the test system is ID8 murine ovarian cancer cell line. Description: Cytotoxicity of third-generation taxoids, ID8. The following applies: ID8 cells.
Data set [6] concerns NCI/ADR drug resistant (Pgp+) human ovarian cancer cell line. The data set is described as follows: Cytotoxicity of third-generation taxoids, NCI/ADR. The following applies: NCI/ADR-RES, NCI/ADR cells.

A word on the IC50: it is the midpoint of a concentration-inhibition curve. High values mean a need for much substance, low ones inhibition by little substance. Consider `C=C(C)CC(NC(=O)OC(C)(C)C)C(O)C(=O)OC1CC2(O)C(OC(=O)c3cccc(OC(F)(F)F)c3)C3C4(OC(C)=O)COC4CC(OC)C3(C)C(=O)C(OC)C(=C1C)C2(C)C` (stereo not shown) [SB-T-1230105, 2-Debenzoyl-2-(3-trifluromethoxybenzoyl)-7,10-dimethyl-3′-dephenyl-3′-(2-methyl-2-propenyl)-docetaxel], for which the IC50 in data set [1] came to 6.98 nM; in the data set on LCC6-WT, 0.55 nM; in data set [2] it was 0.98 nM.
In the case of `C=C(C)CC(NC(=O)OC(C)(C)C)C(O)C(=O)OC1CC2(O)C(OC(=O)c3cccc(OC(F)(F)F)c3)C3C4(OC(C)=O)COC4CC(O)C3(C)C(=O)C(OC(=O)OC)C(=C1C)C2(C)C` (stereo not shown) [SB-T-121705, 2-Debenzoyl-2-(3-trifluromethoxybenzoyl)-3′-dephenyl-10-(methoxycarbonyl)-3′-(2-methyl-2-propenyl)docetaxel], the IC50 in data set [3] was determined as 0.8 nM; in data set [4] it was 0.98 nM; in the data set with LCC6-WT it was 0.59 nM; in data set [2], 1.17 nM.
Turning to `C=C(C)CC(NC(=O)OC(C)(C)C)C(O)C(=O)OC1CC2(O)C(OC(=O)c3cccc(OC(F)F)c3)C3C4(OC(C)=O)COC4CC(O)C3(C)C(=O)C(OC(=O)OC)C(=C1C)C2(C)C` (stereo not shown) [SB-T-121706], the half-maximal inhibitory concentration (IC50) in data set [3] came out at 0.15 nM; in data set [4], 0.12 nM; with LCC6-WT, 0.46 nM; in data set [2] it was 1.06 nM.
The corresponding values for `C=C(C)CC(NC(=O)OC(C)(C)C)C(O)C(=O)OC1CC2(O)C(OC(=O)c3cccc(OC(F)F)c3)C3C4(OC(C)=O)COC4CC(O)C3(C)C(=O)C(OC(=O)C3CC3)C(=C1C)C2(C)C` (stereo not shown) [SB-T-121406, 2-Debenzoyl-2-(3-difluromethoxybenzoyl)-3′-dephenyl-10-cyclopropanecarbonyl-3′-(2-methyl-2-propenyl)docetaxel] are 0.31 nM, 0.29 nM, 0.33 nM and 0.75 nM.
Turning to `C=C(C)CC(NC(=O)OC(C)(C)C)C(O)C(=O)OC1CC2(O)C(OC(=O)c3cccc(OC(F)(F)F)c3)C3C4(OC(C)=O)COC4CC(O)C3(C)C(=O)C(OC(=O)CC)C(=C1C)C2(C)C` (stereo not shown) [SB-T-121305, 2-Debenzoyl-2-(3-trifluromethoxybenzoyl)-3′-dephenyl-10-propanoyl-3′-(2-methyl-2-propenyl)-docetaxel], the half-inhibitory concentration (IC50) in data set [3] was 1.75 nM; in data set [4], 1.74 nM; with LCC6-WT it was 1.54 nM; in data set [2] it was 1.12 nM.
Turning to `CC(=O)O[C@@]12CO[C@@H]1C[C@H](O)[C@@]1(C)C(=O)[C@H](OC(=O)C3CC3)C3=C(C)[C@@H](OC(=O)[C@H](O)[C@H](C=C(C)C)NC(=O)OC(C)(C)C)C[C@@](O)([C@@H](OC(=O)c4cccc(OC(F)(F)F)c4)[C@H]21)C3(C)C` [SB-T-121405], the IC50 was 0.36 nM in data set [3] (Homo sapiens); 0.33 nM in data set [5] (Mus musculus); 0.98 nM in data set [4] (Homo sapiens); 1.01 nM in the data set on LCC6-WT; 0.32 nM in data set [2] (Homo sapiens).
For `C=C(C)CC(NC(=O)OC(C)(C)C)C(O)C(=O)OC1CC2(O)C(OC(=O)c3cccc(OC(F)F)c3)C3C4(OC(C)=O)COC4CC(O)C3(C)C(=O)C(OC(C)=O)C(=C1C)C2(C)C` (stereo not shown) [SB-T-121206, 2-Debenzoyl-2-(3-difluromethoxybenzoyl)-3′-dephenyl-10-acetyl-3′-(2-methyl-2-propenyl)docetaxel], the half-inhibitory concentration (IC50) in data set [3] was found to be 0.23 nM; in data set [5], 0.35 nM; in data set [4], 0.31 nM; in the data set with LCC6-WT, 0.28 nM; in data set [2] it was 0.49 nM.
As to `CC(=O)O[C@H]1C(=O)[C@@]2(C)[C@H]([C@H](OC(=O)c3ccccc3)[C@]3(O)C[C@H](OC(=O)[C@H](O)[C@@H](NC(=O)c4ccccc4)c4ccccc4)C(C)=C1C3(C)C)[C@]1(OC(C)=O)CO[C@@H]1C[C@@H]2O` [paclitaxel, reference compound], the IC50 came out at 361 nM in data set [6]; 68 nM in data set [3] (Homo sapiens); 346 nM in data set [1] (Homo sapiens, LCC6MDR); 2.02 nM in data set [5] (Mus musculus); 3.13 nM in data set [4] (Homo sapiens); 3.1 nM in the data set on LCC6-WT. The molecule also came in with a concentration for half-maximal inhibition (IC50) in data set [2] (Homo sapiens) of 3.78 nM.
For the molecule `C=C(C)CC(NC(=O)OC(C)(C)C)C(O)C(=O)OC1CC2(O)C(OC(=O)c3cccc(OC(F)(F)F)c3)C3C4(OC(C)=O)COC4CC(O)C3(C)C(=O)C(OC(C)=O)C(=C1C)C2(C)C` (stereo not shown) [SB-T-121205, 2-Debenzoyl-2-(3-trifluromethoxybenzoyl)-3′-dephenyl-10-acetyl-3′-(2-methyl-2-propenyl)docetaxel], the IC50 is 0.4 nM in data set [3]; 0.23 nM in data set [5]; 0.23 nM in data set [4]; 0.45 nM in the data set on LCC6-WT; 0.76 nM in data set [2].
On to `C=C(C)CC(NC(=O)OC(C)(C)C)C(O)C(=O)OC1CC2(O)C(OC(=O)c3cccc(OC(F)(F)F)c3)C3C4(OC(C)=O)COC4CC(O)C3(C)C(=O)C(OC)C(=C1C)C2(C)C` (stereo not shown) [SB-T-123005, 2-Debenzoyl-2-(3-trifluromethoxybenzoyl)-10-methyl-3′-dephenyl-3′-(2-methyl-2-propenyl)-docetaxel], for which the IC50 in data set [3] was determined as 7.3 nM; in data set [5], 1.43 nM; in data set [4], 2.46 nM; in data set [2], 0.87 nM.
For `CC(=O)O[C@@]12CO[C@@H]1C[C@H](O)[C@@]1(C)C(=O)[C@H](OC(=O)C3CC3)C3=C(C)[C@@H](OC(=O)[C@H](O)[C@H](CC(C)C)NC(=O)OC(C)(C)C)C[C@@](O)([C@@H](OC(=O)c4cccc(OC(F)(F)F)c4)[C@H]21)C3(C)C` [SB-T-111405, 2-Debenzoyl-2-(3-trifluromethoxybenzoyl)-3′-dephenyl-10-(cyclopropanecarbonyl)-3′-(2-methylpropyl)docetaxel], the IC50 turned out to be 2.3 nM in data set [3] (Homo sapiens); 0.98 nM in data set [1] (Homo sapiens, LCC6MDR); 0.28 nM in data set [5] (Mus musculus); 0.56 nM in data set [2] (Homo sapiens).
As for `C=C(C)CC(NC(=O)OC(C)(C)C)C(O)C(=O)OC1CC2(O)C(OC(=O)c3cccc(OC(F)(F)F)c3)C3C4(OC(C)=O)COC4CC(O)C3(C)C(=O)C(OC(=O)N(C)C)C(=C1C)C2(C)C` (stereo not shown) [SB-T-121605, 2-Debenzoyl-2-(3-trifluromethoxybenzoyl)-3′-dephenyl-10-(N,N-dimethylcarbamoyl)-3′-(2-methyl-2-propenyl)docetaxel], the concentration for half-maximal inhibition (IC50) in data set [3] was 0.56 nM; in data set [5], 0.25 nM; in data set [2] it was 0.54 nM.
Regarding `C=C(C)CC(NC(=O)OC(C)(C)C)C(O)C(=O)OC1CC2(O)C(OC(=O)c3cccc(OC(F)F)c3)C3C4(OC(C)=O)COC4CC(OC)C3(C)C(=O)C(OC)C(=C1C)C2(C)C` (stereo not shown) [SB-T-1230106, 2-Debenzoyl-2-(3-difluromethoxybenzoyl)-7,10-dimethyl-3′-dephenyl-3′-(2-methyl-2-propenyl)-docetaxel], the half-maximal inhibitory concentration (IC50) in data set [1] is 4.7 nM; in the data set with LCC6-WT it was 0.72 nM.
For `C=C(C)C[C@H](NC(=O)OC(C)(C)C)[C@@H](O)C(=O)O[C@H]1C[C@@]2(O)[C@@H](OC(=O)c3cccc(OC(F)F)c3)[C@@H]3[C@]4(OC(C)=O)CO[C@@H]4C[C@H](O)[C@@]3(C)C(=O)[C@H](OC(=O)CC)C(=C1C)C2(C)C` [SB-T-121306, 2-Debenzoyl-2-(3-difluromethoxybenzoyl)-3′-dephenyl-10-propanoyl-3′-(2-methyl-2-propenyl)docetaxel], the 50% inhibitory concentration (IC50) in data set [3] was 0.17 nM; in data set [4] it was 0.54 nM; in the data set with LCC6-WT, 0.81 nM; in data set [2], 0.49 nM.

Source of the values: US10550093B2, “Third generation taxoids and methods of using same” (The Research Foundation for the State University of New York, priority 2015, dated 2020).
